Assay results published in patent US20240116985A1, “STAPLED PEPTIDES AND METHODS THEREOF” (priority 2020, published 2024).
Converted amounts (≈) assume the structure as drawn. Like-named read-outs stand apart in the source and are kept apart here.

Tests used:
[1] = biological target: T1, full-length beta-Catenin (Uniprot ID P35222) (Homo sapiens, UniProt P35222); assay: Fluorescence polarization IC50 (beta-catenin / 5FAM-TCF4 10-53 competition); assay type: binding
T1 construct: 10 nM full-length beta-Catenin (Uniprot ID P35222)
T1 sequence (P35222 1-781): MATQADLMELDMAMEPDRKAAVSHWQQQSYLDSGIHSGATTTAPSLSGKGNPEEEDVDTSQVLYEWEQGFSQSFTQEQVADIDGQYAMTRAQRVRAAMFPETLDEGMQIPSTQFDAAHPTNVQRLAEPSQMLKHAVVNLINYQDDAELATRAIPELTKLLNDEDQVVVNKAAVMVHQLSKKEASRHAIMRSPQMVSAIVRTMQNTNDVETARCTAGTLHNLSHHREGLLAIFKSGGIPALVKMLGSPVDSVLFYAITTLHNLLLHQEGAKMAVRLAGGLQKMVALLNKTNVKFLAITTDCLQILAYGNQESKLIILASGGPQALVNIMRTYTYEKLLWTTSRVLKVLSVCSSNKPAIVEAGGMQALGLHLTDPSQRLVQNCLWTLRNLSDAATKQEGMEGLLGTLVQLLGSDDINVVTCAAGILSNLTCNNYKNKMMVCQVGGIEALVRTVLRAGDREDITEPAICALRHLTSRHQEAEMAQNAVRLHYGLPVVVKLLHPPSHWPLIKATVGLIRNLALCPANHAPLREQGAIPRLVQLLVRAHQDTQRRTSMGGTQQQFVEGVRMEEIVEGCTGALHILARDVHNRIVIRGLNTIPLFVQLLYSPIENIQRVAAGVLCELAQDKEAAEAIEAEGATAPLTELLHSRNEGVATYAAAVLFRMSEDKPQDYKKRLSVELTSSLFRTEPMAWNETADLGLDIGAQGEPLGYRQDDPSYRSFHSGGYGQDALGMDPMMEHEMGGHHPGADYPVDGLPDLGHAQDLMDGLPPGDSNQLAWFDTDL

CHI Log D procedure = assay type: physicochemical; conditions: for CHI Log D: pH 7.4; for chromatographic logD: pH 7.4, CHI Log D
Solubility in PBS = assay type: physicochemical
Method in brief: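 HPLC quantitation of peptide remaining in the PBS supernatant after ultracentrifugation, referenced to a 50 μM solution in DMSO.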

[2] = fluorescence polarization, read-out: beta-Catenin FP IC50

| Structure (SMILES) | IC50 [1, 2] | IC50 ([1]; read-out: FP EC50) | CHI Log D (CHI Log D procedure) | Solubility (Solubility in PBS) | chromatographic logD (CHI Log D procedure) | Solubility (Solubility in PBS; Solubility (uM)) |
| --- | --- | --- | --- | --- | --- | --- |
| CC(=O)N1CCC[C@]12CC=CCCCC1(CCCC=CCCCCCC[C@@](C)(C(=O)N[C@@H](Cc3ccccc3)C(=O)N[C@@H](Cc3csc4ccccc34)C(N)=O)NC(=O)[C@H](CC(N)=O)NC(=O)[C@H](Cc3ccccc3)NC(=O)[C@H](C)NC(=O)[C@H](C)NC(=O)[C@H](CCC(=O)O)NC(=O)[C@H](CC(=O)O)NC1=O)NC(=O)[C@H](CC(C)(C)C)NC(=O)[C@H](CC(=O)O)NC2=O (stereo partly drawn) [I-712, Ac-PL3-Asp-Npg-B5-Asp-Glu-Ala-Ala-Phe-Asn-S8-Phe-BztA-NH2] | 92 nM | 92 nM | 2.778 | 42 µM (≈ 73.7 µg/mL) | – | – |
| CC(=O)N1CCC[C@]12CC=CCCCC1(CCCC=CCCCCCC[C@@](C)(C(=O)N[C@@H](Cc3ccccc3)C(=O)N[C@@H](Cc3csc4ccccc34)C(N)=O)NC(=O)[C@H](CC(N)=O)NC(=O)[C@H](Cc3ccccc3)NC(=O)[C@H](C)NC(=O)[C@H](C)NC(=O)[C@H](CCC(=O)O)NC(=O)[C@H](CC(=O)O)NC1=O)NC(=O)[C@H](CC(C)(C)C)NC(=O)[C@H](CC(=O)O)NC2=O (stereo partly drawn) [I-713, Ac-PL3-Asp-Npg-B5-Asp-Glu-Ala-Ala-Phe-Asn-S8-Phe-BztA-NH2] | 70 nM | 70 nM | 2.851 | 48 µM (≈ 84.2 µg/mL) | – | – |
| CC[C@H](C)[C@@H]1NC(=O)[C@H](CC(=O)O)NC(=O)[C@]2(CC=CCCCC3(CCCC=CCCCCCC[C@@](C)(C(=O)N[C@@H](Cc4ccccc4)C(=O)N[C@@H](Cc4csc5ccccc45)C(N)=O)NC(=O)[C@H](CC(N)=O)NC(=O)[C@H](Cc4ccccc4)NC(=O)[C@H](C)NC(=O)[C@H](C)NC(=O)[C@H](CCC(=O)O)NC(=O)[C@H](CC(=O)O)NC3=O)NC1=O)CCCN2C(C)=O (stereo partly drawn) [I-714, Ac-PL3-Asp-Ile-B5-Asp-Glu-Ala-Ala-Phe-Asn-S8-Phe-BztA-NH2] | 131 nM | 131 nM | 2.698 | 43 µM (≈ 74.9 µg/mL) | – | – |
| CC[C@H](C)[C@@H]1NC(=O)[C@H](CC(=O)O)NC(=O)[C@]2(CC=CCCCC3(CCCC=CCCCCCC[C@@](C)(C(=O)N[C@@H](Cc4ccccc4)C(=O)N[C@@H](Cc4csc5ccccc45)C(N)=O)NC(=O)[C@H](CC(N)=O)NC(=O)[C@H](Cc4ccccc4)NC(=O)[C@H](C)NC(=O)[C@H](C)NC(=O)[C@H](CCC(=O)O)NC(=O)[C@H](CC(=O)O)NC3=O)NC1=O)CCCN2C(C)=O (stereo partly drawn) [I-715, Ac-PL3-Asp-Ile-B5-Asp-Glu-Ala-Ala-Phe-Asn-S8-Phe-BztA-NH2] | 60.5 nM | 60.5 nM | 2.762 | 25 µM (≈ 43.5 µg/mL) | – | – |
| CC(=O)N1CCC[C@]12CC=CCCCC1(CCCC=CCCCCCC[C@@](C)(C(=O)N[C@@H](Cc3ccsc3)C(=O)N[C@@H](Cc3csc4ccccc34)C(N)=O)NC(=O)[C@H](CC(N)=O)NC(=O)[C@H](Cc3ccccc3)NC(=O)[C@H](C)NC(=O)[C@H](C)NC(=O)[C@H](CCC(=O)O)NC(=O)[C@H](CC(=O)O)NC1=O)NC(=O)[C@H](CC(C)C)NC(=O)[C@H](CC(=O)O)NC2=O (stereo partly drawn) [I-716, Ac-PL3-Asp-Leu-B5-Asp-Glu-Ala-Ala-Phe-Asn-S8-3Thi-BztA-NH2] | 91 nM | 91 nM | 2.622 | 50 µM (≈ 87.4 µg/mL) | – | – |
| CC(=O)N1CCC[C@]12CC=CCCCC1(CCCC=CCCCCCC[C@@](C)(C(=O)N[C@@H](Cc3ccsc3)C(=O)N[C@@H](Cc3csc4ccccc34)C(N)=O)NC(=O)[C@H](CC(N)=O)NC(=O)[C@H](Cc3ccccc3)NC(=O)[C@H](C)NC(=O)[C@H](C)NC(=O)[C@H](CCC(=O)O)NC(=O)[C@H](CC(=O)O)NC1=O)NC(=O)[C@H](CC(C)C)NC(=O)[C@H](CC(=O)O)NC2=O (stereo partly drawn) [I-717, Ac-PL3-Asp-Leu-B5-Asp-Glu-Ala-Ala-Phe-Asn-S8-3Thi-BztA-NH2] | 39 nM | 39 nM | 2.694 | 35 µM (≈ 61.1 µg/mL) | – | – |
| CC(=O)N1CCC[C@]12CC=CCCCC1(CCCC=CCCCCCC[C@@](C)(C(=O)N[C@@H](Cc3ccsc3)C(=O)N[C@@H](Cc3csc4ccccc34)C(N)=O)NC(=O)[C@H](CC(N)=O)NC(=O)[C@H](Cc3ccccc3)NC(=O)[C@H](C)NC(=O)[C@H](C)NC(=O)[C@H](CCC(=O)O)NC(=O)[C@H](CC(=O)O)NC1=O)NC(=O)[C@H](CC(C)(C)C)NC(=O)[C@H](CC(=O)O)NC2=O (stereo partly drawn) [I-718, Ac-PL3-Asp-Npg-B5-Asp-Glu-Ala-Ala-Phe-Asn-S8-3Thi-BztA-NH2] | 82 nM | 82 nM | 2.765 | 38 µM (≈ 66.9 µg/mL) | – | – |
| CC(=O)N1CCC[C@]12CC=CCCCC1(CCCC=CCCCCCC[C@@](C)(C(=O)N[C@@H](Cc3ccsc3)C(=O)N[C@@H](Cc3csc4ccccc34)C(N)=O)NC(=O)[C@H](CC(N)=O)NC(=O)[C@H](Cc3ccccc3)NC(=O)[C@H](C)NC(=O)[C@H](C)NC(=O)[C@H](CCC(=O)O)NC(=O)[C@H](CC(=O)O)NC1=O)NC(=O)[C@H](CC(C)(C)C)NC(=O)[C@H](CC(=O)O)NC2=O (stereo partly drawn) [I-719, Ac-PL3-Asp-Npg-B5-Asp-Glu-Ala-Ala-Phe-Asn-S8-3Thi-BztA-NH2] | 38 nM | 38 nM | 2.818 | 28 µM (≈ 49.3 µg/mL) | – | – |
| CC[C@H](C)[C@@H]1NC(=O)[C@H](CC(=O)O)NC(=O)[C@]2(CC=CCCCC3(CCCC=CCCCCCC[C@@](C)(C(=O)N[C@@H](Cc4ccsc4)C(=O)N[C@@H](Cc4csc5ccccc45)C(N)=O)NC(=O)[C@H](CC(N)=O)NC(=O)[C@H](Cc4ccccc4)NC(=O)[C@H](C)NC(=O)[C@H](C)NC(=O)[C@H](CCC(=O)O)NC(=O)[C@H](CC(=O)O)NC3=O)NC1=O)CCCN2C(C)=O (stereo partly drawn) [I-720, Ac-PL3-Asp-Ile-B5-Asp-Glu-Ala-Ala-Phe-Asn-S8-3Thi-BztA-NH2] | 75 nM | 75 nM | 2.665 | 33 µM (≈ 57.7 µg/mL) | – | – |
| CC[C@H](C)[C@@H]1NC(=O)[C@H](CC(=O)O)NC(=O)[C@]2(CC=CCCCC3(CCCC=CCCCCCC[C@@](C)(C(=O)N[C@@H](Cc4ccsc4)C(=O)N[C@@H](Cc4csc5ccccc45)C(N)=O)NC(=O)[C@H](CC(N)=O)NC(=O)[C@H](Cc4ccccc4)NC(=O)[C@H](C)NC(=O)[C@H](C)NC(=O)[C@H](CCC(=O)O)NC(=O)[C@H](CC(=O)O)NC3=O)NC1=O)CCCN2C(C)=O (stereo partly drawn) [I-721, Ac-PL3-Asp-Ile-B5-Asp-Glu-Ala-Ala-Phe-Asn-S8-3Thi-BztA-NH2] | 46 nM | 46 nM | 2.722 | 28 µM (≈ 48.9 µg/mL) | – | – |
| CC[C@H](C)[C@@H]1NC(=O)[C@H](CC(=O)O)NC(=O)[C@]2(CC=CCCCC3(CCCC=CCCCCCC[C@@](C)(C(=O)N[C@@H](Cc4ccccc4)C(=O)N[C@@H](Cc4csc5ccccc45)C(=O)N[C@@H](CCC(N)=O)C(N)=O)NC(=O)[C@H](CCC(N)=O)NC(=O)[C@H](CC4CCCCC4)NC(=O)[C@H](C)NC(=O)[C@H](C)NC(=O)[C@H](CCC(=O)O)NC(=O)[C@H](CC(=O)O)NC3=O)NC1=O)CCCN2C(C)=O (stereo partly drawn) [I-722, Ac-PL3-Asp-Ile-B5-Asp-Glu-Ala-Ala-Cha-Gln-S8-Phe-BztA-Gln-NH2] | 1130 nM | – | – | – | 2.52 | 27 µM (≈ 51 µg/mL) |
| CC[C@H](C)[C@@H]1NC(=O)[C@H](CC(=O)O)NC(=O)[C@]2(CC=CCCCC3(CCCC=CCCCCCC[C@@](C)(C(=O)N[C@@H](Cc4ccccc4)C(=O)N[C@@H](Cc4csc5ccccc45)C(=O)N[C@@H](CCC(N)=O)C(N)=O)NC(=O)[C@H](CCC(N)=O)NC(=O)[C@H](Cc4ccc(-c5ccccc5)cc4)NC(=O)[C@H](C)NC(=O)[C@H](C)NC(=O)[C@H](CCC(=O)O)NC(=O)[C@H](CC(=O)O)NC3=O)NC1=O)CCCN2C(C)=O (stereo partly drawn) [I-723, Ac-PL3-Asp-Ile-B5-Asp-Glu-Ala-Ala-Bip-Gln-S8-Phe-BztA-Gln-NH2] | 3830 nM | – | – | – | 2.58 | 29 µM (≈ 56.8 µg/mL) |
